Measurements taken from US20020165136A1, “MHC peptides and methods of use” (Thomas Jefferson University, priority 1996, published 2002).
“Also recorded” adds a separate entry of the source. Square brackets hold non-standard residues; d marks the D form. Ends that are not written are not given here. NMeA = CN[C@@H](C)C(=O)O

Legend:
[1] = system: C6 cells; assay: Protection from subsequent challenge with wild type C6 cells; assay type: in vivo, rat
Description: Synthetic peptide sequences listed above were tested at 5×10^−M on C6 cells. Tests for apoptosis and for protection from subsequent challenge with C6 cells are described herein. Point mutations are shown in bold characters.

[2] = system: C6 cells; assay: In vivo apoptosis assay: peptide-pretreated C6 cells in a diffusion chamber implanted s.c. in rats; design: species or system rat; details: for % Recovery (24 hs) / ability to induce apoptosis (in words) / Percent Recovery: C6 cells; for % Recovery (24 hs): peptide at 5×10^−M, 24 hs in diffusion chamber, % of original inoculum; for ability to induce apoptosis (in words): preincubation at 10^−5 M; for Percent Recovery: 24 hours in diffusion chamber; for Recovery (%): C6 rat glioblastoma cells pre-treated with 50 μM peptide 24 hours in serum-free medium, chamber in rats 24 hours
Description: (§1) The test for apoptosis in vivo was based on the use of the diffusion chamber described in detail by Resnicoff, M., et al., Cancer Res. 55: 2463-2469 (1995). According to this method, the cells are placed in a diffusion chamber that allows the passage of nutrients, antigens, antibodies, etc., but not of intact cells. The sterilized chamber is loaded with cells and then inserted into the subcutaneous tissue of rats or mice; after 24 hours, (or at other times, depending on the experiment) the chamber is removed and the number of cells in the chamber is determined with a hemocytometer, and expressed as a percentage of the original inoculum. The cells are also stained with trypan blue for viability; in the experience of the inventors, surviving cells are >95% viable.
(§2) For in vivo effects, 5×10^5 cells (C6 and CaOV-3 were both used for these studies) were placed in diffusion chambers and implanted into the s.c. tissue of the animals. Once the skin was sutured, the peptides were injected s.c. next to the chambers at the indicated concentrations in a final volume of 0.2 ml. Twenty-four hours later, the chambers were removed from the animals and the cells were quantitatively recovered.
(from gp100), involved in regression of human melanoma (Kawakami et al. 1994); 2) […], recognized by melanoma-specific human CTL lines (Cox et al, 1994); and 3) […], derived from connexin 37, that induces CTL responses against murine lung carcinoma (Mandelboim, et al., 1994). For each of these peptides, a control peptide having the same amino acid composition, but in scrambled order (controls), was also tested. C6 cells were preincubated with the peptides at a concentration of 10^−5M and transferred to the diffusion chamber (see Methods and Materials). Cell number was determined after 24 hours in the diffusion chamber transplanted into the subcutaneous tissue of rats.
Two of the three peptides were selected for further studies of the effects of mutations on the ability to induce apoptosis. Several point mutations were introduced into the peptide […]. […] Mutations at tyrosine in position 1, or the two prolines in positions 4 and 6, effectively inactivated peptide no. 2. An exception to this observation was seen when the prolines were replaced by an N-methyl amino acid. Mutations at E3 or T8 had little effect, but when both residues were mutated, recovery increased to 77%.
In order to determine the minimum concentration of these peptides that still would induce apoptosis in vivo, C6 cells were preincubated with different concentrations of the […] and D-amino acid […] peptides and recovery of viable cells was determined after 24 hours in the diffusion chamber.

[3] = system: C6 glioblastoma cells; assay type: in vivo, rat; design: dose or concentration left out as unconfirmed; details: C6 cells pre-treated 24 hours in serum-free medium
[4] = system: CaOV3 cells (human ovarian carcinoma cells); assay: Diffusion chamber assay, CaOV3 cells in mice, peptide injected s.c. next to chamber; assay type: in vivo, mouse; details: Balb/c mice, 0.2 ml of 0.05 mM peptide s.c. next to chamber, 24 hours
Description: as §1, §2
Human ovarian carcinoma cells CaOV3 (Resnicoff, et al. (1993)) were loaded into a diffusion chamber, and the chamber was inserted into the subcutaneous tissue of mice. The animals were then injected, also subcutaneously next to the chamber, with 0.2 ml of a 0.05 mM solution of four different peptides, and the number of cells was determined 24 hours later. […] The control peptide had no effect, and the number of cells more than doubled. CaOV3 cells also undergo apoptosis, as determined by FACS analysis.
CaOV3 cells (human ovarian carcinoma cells, 5×10^5 cells) were placed without any previous treatment into diffusion chambers that were then implanted into the subcutaneous tissue of Balb/c mice. Animals were then injected subcutaneously next to the chambers either with 0.2 ml of a 0.05 mM solution of one of the three test peptides or with 0.2 ml of a 0.05 mM solution of the control peptide.

[5] = system: C6 cells; assay: Tumorigenesis of C6 cells in nude mice; assay type: in vivo; details: for Expected Delay: calculated from % cells recovered; for Palpable Tumors: s.c. in nude mice
Description: C6 cells pre-incubated with various concentrations (10^−12, 10^−10, 10^−8, and 10^−5 M) of the peptide YLRPGPVTA were injected simultaneously into nude mice and the time of appearance of subcutaneous tumors was determined. In parallel experiments, the percentage of cells killed in the diffusion chamber assay was determined. From the percentage of cells killed, the expected delay in the appearance of tumors in mice was calculated as described previously (Resnicoff, et al., Cancer Res. 55:3739 (1995)). […] The time of appearance of tumors is slightly more delayed than expected from the percentage of cells killed in 24 hours in the diffusion chamber assay, a phenomenon previously observed also with antisense oligodeoxynucleotides to the IGF-IR RNA (Resnicoff, et al., Cancer Res. 55:3739 (1995)).
A similar inhibition of tumorigenesis was observed using the D-amino acid peptide LRLTATGDLL. In this case, the peptide (all D-aa, sequence from Kawakami, et al. (1994)) was injected s.c. into nude mice (0.1 ml, at the indicated concentrations), simultaneously with C6 cells (10^5 cells in 0.1 ml) and next to them. The animals were followed for tumor development. The results were as follows: For C6 cells without peptide injection, the tumors appeared after 4 days; for a peptide injection at 10^−10 to 10^−12 M, tumors appeared after 11 days.
C6 cells were incubated with the synthetic peptide at the indicated final concentrations for 24 hours in serum-free medium before injection into the subcutaneous tissue of seven week-old male Dalb/c nude mice. Percentage recovery was determined using the diffusion chamber assay as described herein. Expected Delay is the number of days after injection before the tumors should become palpable, based on survival in vivo estimated by percentage of cells recovered. […] Three nude mice were used in each experimental condition.

[6] = system: C6 cells; assay: FACS analysis of apoptotic cells in the diffusion chamber; design: species or system rat; details: C6 cells incubated in vivo for 90 minutes in diffusion chamber
Description: In order to determine that the loss of cells upon treatment with active peptides was due to the induction of apoptosis, the presence of apoptotic cells within the diffusion chamber was determined at several time intervals by FACS analysis (Sell, et al. (1995)). FIG. 1 represents a typical experiment using C6 cells. […] In both cases, the cells had been incubated in vivo for 90 minutes in a diffusion chamber as described herein. […] Similar results were obtained at several time intervals thereafter.

[7] = system: C6/p35 cells; assay: Diffusion chamber apoptosis test on C6 cells expressing baculovirus p35; assay type: in vivo, rat; details: untreated versus incubated with peptide
Description: In addition, one of the common pathways of apoptotic injury is through the ICE proteins ([…] (1996)). The activation of ICE and ICE-like proteins is inhibited by the p35 protein of baculovirus (Clem and Miller (1994)), which can also be functional in mammalian cells (Rabizadeh, et al. (1993). To determine whether the synthetic peptides caused apoptosis through the ICE pathway, a plasmid expressing the p35 protein was stably introduced into C6 cells. C6 and C6/p35 cells were then tested for apoptosis in the diffusion chambers, using the synthetic peptide […]. 2 is a composite picture showing the expression of p35 in the various cell lines, and, below each lane, the percentage of cells recovered from the diffusion chamber.

Sequence: ALEPGPVTA [point mutant of …]
- Protection from wild type cell challenge [1]: no
- % Recovery (24 hs) [2]: 224.0%

Sequence: ATVPGPELY (D-amino acids) [ATVPGPELY (D-amino acid)]
- Protection from wild type cell challenge [1]: yes
- ability to induce apoptosis (in words) ([2]; diffusion chamber): as effective as the L-amino acid sequences
- % Recovery (24 hs) [2]: 6.0%

Sequence: GILGFVPTL [Peptide M158-66, synthetic peptide corresponding to one derived from influenza virus]
- Recovery (%) [3]: 23.4%

Sequence: LLDGTATLRL [MHC Class I peptide derived from gp100, human melanoma specific antigen]
- Protection from wild type cell challenge [1]: yes
- % Recovery (24 hs) [2]: 5.0%

Sequence: LRLTATGDLL (D-amino acids) [LRLTATGDLL (D-amino acid)]
- Percent Recovery [4]: 6.6%
- Protection from wild type cell challenge [1]: yes
- time of appearance of tumors ([5]; peptide 0.1 ml s.c. at 10^−10 to 10^−12 M, simultaneously with and next to 10^5 C6 cells, nude mice): 11 days
- ability to induce apoptosis (in words) ([2]; diffusion chamber): as effective as the L-amino acid sequences
- Percent Recovery ([2]; peptide 10^−5 M): 0.5%
- Percent Recovery ([2]; peptide 10^−8 M): 3.0%
- Percent Recovery ([2]; peptide 10^−12 M): 6.6%
- Percent Recovery ([2]; peptide 10^−13 M, listed as LRLTATGDLL (D-aa)): 18.0%
- % Recovery (24 hs) [2]: 4.9%

Sequence: SMAPGNYSV [control peptide, reference compound]
- apoptotic cells by FACS analysis [6]: not

Sequence: TLGIVCPI [HPV-16 E786-93, MHC Class I peptide derived from Human Papilloma Virus Type 16 (HPV-16) E7 protein]
- Recovery (%) [2]: 27%

Sequence: YAEPGPVTA [point mutant of …]
- Protection from wild type cell challenge [1]: no
- % Recovery (24 hs) [2]: 186.0%

Sequence: YLAPGPVTA [point mutant of …]
- Protection from wild type cell challenge [1]: yes
- % Recovery (24 hs) [2]: 7.4%

Sequence: YLEAGPVTA [point mutant of …]
- Protection from wild type cell challenge [1]: no
- % Recovery (24 hs) [2]: 224.0%

Sequence: YLEPAPVTA [point mutant of …]
- Protection from wild type cell challenge [1]: no
- % Recovery (24 hs) [2]: 70.0%

Sequence: YLEPGAVTA
- Percent Recovery [4]: 280%
- Protection from wild type cell challenge [1]: no
- % Recovery (24 hs) [2]: 260.0%

Sequence: YLEPGPATA [point mutant of …]
- Protection from wild type cell challenge [1]: yes
- % Recovery (24 hs) [2]: 11.0%

Sequence: YLEPGPVAA [point mutant of …]
- Protection from wild type cell challenge [1]: yes
- % Recovery (24 hs) [2]: 9.3%

Sequence: YLEPGPVKA [point mutant of …]
- Protection from wild type cell challenge [1]: yes
- % Recovery (24 hs) [2]: 12.0%

Sequence: YLEPGPVTA [MHC Class I peptide recognized by melanoma-specific human CTL lines]
- apoptotic cells by FACS analysis [6]: Apoptotic cells are detectable
- Percent Recovery [4]: 0.2%
- Protection from wild type cell challenge [1]: yes
- % Recovery (24 hs) [2]: 3.0%

Sequence: YLEXGXVTA (X: N-Methyl-A) (YLE[NMeA]G[NMeA]VTA) [… with prolines replaced by an N-methyl amino acid]
- Protection from wild type cell challenge [1]: yes
- % Recovery (24 hs) [2]: 6.5%

Sequence: YLRPGPVRA [double mutant (E3 and T8) of …]
- Protection from wild type cell challenge [1]: no
- % Recovery (24 hs) [2]: 77.0%

Sequence: YLRPGPVTA [point mutant of …]
- Percent Recovery [4]: 3.0%
- Protection from wild type cell challenge [1]: yes
- Expected Delay ([5]; 10^−5 M peptide): 14 days
- Expected Delay ([5]; 10^−8 M peptide): 11 days
- Expected Delay ([5]; 10^−10 M peptide): 10 days
- Expected Delay ([5]; 10^−12 M peptide, days before tumors should become palpable): 8 days
- Palpable Tumors ([5]; C6 cells pre-incubated with 10^−5 M peptide): 21 days
- Palpable Tumors ([5]; C6 cells pre-incubated with 10^−8 M peptide): 15 days
- Palpable Tumors ([5]; C6 cells pre-incubated with 10^−10 M peptide): 14 days
- Palpable Tumors ([5]; C6 cells pre-incubated with 10^−12 M peptide, days after injection): 11 days
- inhibition of tumorigenesis (in words) ([5]; C6 cells pre-treated with peptide at 10^−12 to 10^−5 M, nude mice): concentration-dependent inhibition of tumorigenesis
- % Recovery ([2]; C6 cells incubated with 10^−5 M peptide 24 hours in serum-free medium, diffusion chamber): 0.3%
- % Recovery ([2]; C6 cells incubated with 10^−8 M peptide 24 hours in serum-free medium, diffusion chamber): 2.1%
- % Recovery ([2]; C6 cells incubated with 10^−10 M peptide 24 hours in serum-free medium, diffusion chamber): 4.5%
- % Recovery ([2]; C6 cells incubated with 10^−12 M peptide 24 hours in serum-free medium, diffusion chamber): 18%
- Percent Recovery ([2]; peptide 10^−5 M): 0.3%
- Percent Recovery ([2]; peptide 10^−8 M): 2.1%
- Percent Recovery ([2]; peptide 10^−10 M): 4.5%
- Percent Recovery ([2]; peptide 10^−12 M): 18%
- % Recovery (24 hs) [2]: 3.5%
- apoptosis in C6 cells and C6 cells stably transfected with the empty vector ([2]; diffusion chamber, treated with peptide): underwent apoptosis
- growth of clones expressing the p35 protein in the diffusion chamber [7]: grew in the diffusion chamber equally well whether untreated or incubated with the synthetic peptide; also recorded: grew in the diffusion chamber equally well, whether untreated or incubated with the synthetic peptide

Sequence: YMLDLQPETT [HPV-16 E711-20, MHC Class I peptide derived from Human Papilloma Virus Type 16 (HPV-16) E7 protein]
- Recovery (%) [2]: 13%
